Experimental data as given in paper PMC4471902, “Block of NMDA receptor channels by endogenous neurosteroids: implications for the agonist induced conformational states of the channel vestibule” (Scientific Reports, 2015).

Key:
[1] = target: T1, GluN1(T648A)/GluN2B receptors (Rattus norvegicus, UniProt P35439+Q00960, T648A); test: Whole-cell patch-clamp of GluN1(T648A)/GluN2B receptor responses in HEK293 cells; format: cell-based; details: for sensitivity of spontaneous currents (absence of glutamate and glycine) to antagonist: 100 μM
T1 construct: expressed in transfected cells; host or cells: HEK293
T1 sequence (Q00960 27-1482, other chains not shown): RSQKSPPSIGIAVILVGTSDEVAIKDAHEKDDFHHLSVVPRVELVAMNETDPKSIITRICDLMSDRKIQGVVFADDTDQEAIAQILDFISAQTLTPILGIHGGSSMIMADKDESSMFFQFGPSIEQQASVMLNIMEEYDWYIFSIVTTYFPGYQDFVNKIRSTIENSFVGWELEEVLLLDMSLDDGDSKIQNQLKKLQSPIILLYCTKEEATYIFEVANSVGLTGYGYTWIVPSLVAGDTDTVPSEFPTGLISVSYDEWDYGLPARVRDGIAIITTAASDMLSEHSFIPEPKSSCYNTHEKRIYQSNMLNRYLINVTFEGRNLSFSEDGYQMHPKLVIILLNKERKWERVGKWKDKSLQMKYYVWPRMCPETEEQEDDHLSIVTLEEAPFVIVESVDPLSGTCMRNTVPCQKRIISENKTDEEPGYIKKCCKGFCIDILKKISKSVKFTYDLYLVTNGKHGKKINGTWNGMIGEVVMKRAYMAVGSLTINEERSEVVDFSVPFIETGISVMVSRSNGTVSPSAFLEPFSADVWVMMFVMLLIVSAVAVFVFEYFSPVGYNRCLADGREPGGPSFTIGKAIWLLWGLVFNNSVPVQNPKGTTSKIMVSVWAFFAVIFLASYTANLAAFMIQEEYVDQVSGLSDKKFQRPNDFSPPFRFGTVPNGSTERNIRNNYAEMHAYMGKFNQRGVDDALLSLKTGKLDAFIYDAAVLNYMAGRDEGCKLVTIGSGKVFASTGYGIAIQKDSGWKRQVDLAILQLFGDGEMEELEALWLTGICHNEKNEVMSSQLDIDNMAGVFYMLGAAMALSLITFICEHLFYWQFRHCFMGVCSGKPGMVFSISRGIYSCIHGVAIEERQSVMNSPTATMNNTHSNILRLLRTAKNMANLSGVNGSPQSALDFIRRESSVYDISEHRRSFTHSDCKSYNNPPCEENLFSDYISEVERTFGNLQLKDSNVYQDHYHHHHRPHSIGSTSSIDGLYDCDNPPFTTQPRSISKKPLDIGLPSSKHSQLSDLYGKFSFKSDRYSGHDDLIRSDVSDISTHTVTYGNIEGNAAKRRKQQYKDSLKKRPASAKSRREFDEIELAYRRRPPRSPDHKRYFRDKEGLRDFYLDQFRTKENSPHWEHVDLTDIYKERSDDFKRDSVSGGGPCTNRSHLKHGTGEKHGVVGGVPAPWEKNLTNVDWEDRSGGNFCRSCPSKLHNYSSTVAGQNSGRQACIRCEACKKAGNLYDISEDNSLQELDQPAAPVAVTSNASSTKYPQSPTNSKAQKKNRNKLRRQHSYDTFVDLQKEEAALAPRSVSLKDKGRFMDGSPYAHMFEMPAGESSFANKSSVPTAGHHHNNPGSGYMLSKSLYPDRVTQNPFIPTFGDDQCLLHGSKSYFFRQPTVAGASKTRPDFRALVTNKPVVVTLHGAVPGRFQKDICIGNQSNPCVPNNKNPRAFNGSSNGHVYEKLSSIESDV
From the text: (§1) Human embryonic kidney (HEK293) cells were transfected with expression vectors containing: GluN1–1a (GenBank accession number U08261)[52]; GluN2B (GenBank accession number M91562); GluN1-4a(F484A), (generous gift from Dr. J. J. Woodward)[53] (Smothers & Woodward, 2009); GluN3A (generous gift from Dr. S. A. Lipton)[54] (GenBank accession number NM_138546); GluN1ΔN with deleted 354 amino acids in the NTD (32 to 386); GluN1ΔC with an introduced stop codon in 838 of the CTD GluN2BΔN) with deleted 354 amino acids in the NTD (32 to 386); GluN2BΔC with an introduced stop codon in 844 of the CTD[55]; GluR0 (GenBank accession number Synechocystis PCC 6803) (generous gift from Dr. M. L. Mayer)[18]; and green fluorescent protein (GFP) (pQBI 25, Takara, Tokyo, Japan) genes, as described previously. The Quick-Change site-directed mutagenesis kit (Agilent Technologies, Santa Clara, CA, USA) was used to generate specific point mutations in the M1/M3 region according to the manufacturer’s instructions using manually designed primers purchased from Sigma. Modified DNA plasmids were transformed into competent XL10-Gold E.coli cells, positive clones were selected, and isolated DNA was sequenced. […] All mutations were verified by DNA sequencing (Macrogen, Seoul, Korea or SeQme, Dobris, Czech Republic). The amino acids are numbered according to the full-length protein, including the signal peptide, with the initiating methionine as 1.
(§2) Experiments were performed 24–48 hrs after transfection on cells transfected with GluN1/GluN2B/GFP plasmids. Whole-cell voltage-clamp recordings from HEK293 cells were made with a patch-clamp amplifier (Axopatch 200B; Axon Instruments, Inc., Foster City, CA) after a capacitance and series resistance (<10 MΩ) compensation of 80–90%.
(§3) Patch pipettes (3–5 MΩ) were filled with a solution containing (in mM): 120 gluconic acid, 15 CsCl, 10 BAPTA, 10 HEPES, 3 MgCl2, 1 CaCl2, and 2 ATP-Mg salt (pH-adjusted to 7.2 with CsOH). When GluR0 receptor responses were studied, intracellular solution contained (in mM): 120 gluconic acid, 15 KCl, 10 BAPTA, 10 HEPES, 3 MgCl2, 1 CaCl2, and 2 ATP-Mg salt (pH-adjusted to 7.2 with KOH). Extracellular solution (ECS) contained the following (in mM): 160 NaCl, 2.5 KCl, 10 HEPES, 10 glucose, 0.2 EDTA, and 0.7 CaCl2 (pH-adjusted to 7.3 with NaOH). Glycine (10 μM), an NMDAR co-agonist, was present in the control and test solutions. All (PA-S and PA-A) solutions were made from freshly prepared 20 mM PA-S and 5 mM PA-A stock in dimethyl sulfoxide (DMSO). The final dilution to ECS was made at 50 °C and followed by 1 min sonication (SONOREX DIGITEC DT 100/H, BADELIN electronic, Berlin, Germany). The same concentration of DMSO was added to all extracellular solutions. Drug applications were made with a microprocessor-controlled multibarrel fast-perfusion system. Changes in the glutamate-induced current in HEK293 cells transfected by GluN1/GluN2B subunits were used to estimate the rate of solution exchange around the cell. Standard ECS was switched to the ECS diluted by water (50%) during glutamate application. The osmolarity was adjusted by sucrose to match the standard ECS. Glutamate (1 mM), glycine (10 μM) and pH was maintained constant in both solutions. The solution exchange rate was estimated to be τ = 4.3 ± 0.3 ms (n = 6) for lifted cells and τ = 12.0 ± 0.9 ms (n = 6) for the attached cells.
The IC50 was determined from a single dose of a steroid using the formula [drawing 1] where I is the relative degree of inhibition and [steroid] is the steroid concentration used. Calculations of IC50 were made assuming 100% inhibition at saturating steroid concentration this is valid for both PA-S and PA-A[12][13]. […]

[2] = target: T2, GluN1(A649T)/GluN2B receptors (Rattus norvegicus, UniProt P35439+Q00960, A649T); test: Whole-cell patch-clamp of GluN1(A649T)/GluN2B receptor responses in HEK293 cells; format: cell-based
T2 construct: expressed in transfected cells; host or cells: HEK293
T2 sequence (Q00960 27-1482, other chains not shown): as above
From the text: as §1, §2
(§4) Patch pipettes (3–5 MΩ) were filled with a solution containing (in mM): 120 gluconic acid, 15 CsCl, 10 BAPTA, 10 HEPES, 3 MgCl2, 1 CaCl2, and 2 ATP-Mg salt (pH-adjusted to 7.2 with CsOH). […]

GluN1/GluN2B receptors [3] = target: T3, GluN1/GluN2B receptors (Rattus norvegicus, UniProt P35439+Q00960); test: Whole-cell patch-clamp of GluN1/GluN2B receptor responses in transfected HEK293 cells; format: cell-based
T3 construct: expressed in transfected cells; host or cells: HEK293
T3 sequence (Q00960 27-1482, other chains not shown): as above
From the text: as §1, §2, §3
Experiments were performed at room temperature (21–25 °C). Data were collected (low-pass filtered at 2 kHz and sampled at 10 kHz) and analyzed using pClamp 10 (Molecular Devices). Unless otherwise mentioned, error bars represent SEM; statistical comparison of groups was performed using Student’s t-test (p < 0.05 was used to determine the significance).
The IC50 was determined from a single dose of a steroid using the formula [drawing 1] where I is the relative degree of inhibition and [steroid] is the steroid concentration used. […]

[4] = target: T4, GluN1(V656A)/GluN2B receptors (Rattus norvegicus, UniProt P35439+Q00960, V656A); test: Whole-cell patch-clamp of GluN1(V656A)/GluN2B receptor responses in HEK293 cells; format: cell-based
T4 construct: expressed in transfected cells; host or cells: HEK293
From the text: as §1, §2, §4

GluN1/GluN2B receptors [5] = target: T3, GluN1/GluN2B receptors; set-up: method as in PMID 22188257; details: from −60 to +60 mV; cited from earlier work
[6] = PA-A 20 μM, fit to the Boltzmann equation
[7] = PA-A 20 μM, fit to the Boltzmann equation, read-out: Kd(0 mV)

SMILES | sensitivity of spontaneous currents (absence of glutamate and glycine) to antagonist [1] | voltage dependence of steroid inhibition [2] | δ (apparent electrical distance of the binding site) [2, 6] | Kd [2, 7] | voltage dependence of steroid inhibition (GluN1/GluN2B receptors [3]; WT GluN1/GluN2B) | δ (apparent electrical distance of the binding site) (GluN1/GluN2B receptors [3]; WT, PA-A 20 μM, fit to the Boltzmann equation) | Kd (GluN1/GluN2B receptors [3]; WT, PA-A 20 μM, fit to the Boltzmann equation, read-out: Kd(0 mV)) | mode of inhibition (GluN1/GluN2B receptors [3]; dependence on receptor activation by agonists) | voltage dependence of steroid inhibition [4] | δ (apparent electrical distance of the binding site) ([4]; fit to the Boltzmann equation) | Kd ([4]; fit to the Boltzmann equation, read-out: Kd(0 mV)) | voltage dependence of steroid inhibition [1] | δ (apparent electrical distance of the binding site) [1, 6] | Kd [1, 7] | voltage dependence of inhibition (GluN1/GluN2B receptors [5])
N[C@H](CCCP(=O)(O)O)C(=O)O [D-AP5, D-amino-5-phosphonopentanoic acid, reference compound] | only moderately sensitive | – | – | – | – | – | – | – | – | – | – | – | – | – | –
O=C(O)c1cc(O)c2ccc(Cl)cc2n1 [7-CKA, 7-Cl-kynurenic acid, reference compound] | only moderately sensitive | – | – | – | – | – | – | – | – | – | – | – | – | – | –
CC(=O)C1CCC2C3CC[C@@H]4C[C@H](OC(=O)C[N+](C)(C)C)CC[C@]4(C)C3CC[C@]12C (stereo partly drawn) [PA-A, 5β-pregnan-20-on 3α-yl-[(2-trimethylammonio)-ethanoate]] | – | intermediate voltage dependence | 0.23 | 745 µM | weak voltage dependence | 0.15 | 335 µM | use-dependent | intermediate voltage dependence | 0.19 | 193 µM | strongly voltage dependent | 0.29 | 340 µM | voltage independent
